We go through two compounds from patent US8410161B2, “Thioxanthone ring system derivatives” (National Defense Medical Center, priority 2010, dated 2013).

Assay type in all cases: cell-based
The subject of one series is A control cell lines. The series is described as follows: MTT assay, A control cell lines (lung cancer cell). The text has this:
Please refer to Table 1 and FIGS. 4A-4C. According to a MTT assay (Table 1), various cell viabilities of the A control cell lines can be obtained and illustrated in FIG. 4A while the compounds No. 2˜30 are used to treat A control cell lines, wherein A control cell lines are lung cancer cell.
Background: Formazan colour is commonly taken as a measure of viable cells.

Series [1] can be described thus: MTT assay, HEL299 fibroblast. The note with it: human. The text has this:
(§1) Please refer to FIG. 4C, various cell viabilities of the HEL299 cell lines can be obtained through the MTT assay while the compounds No. 1˜30 are used to treat HEL299 cell lines, wherein HEL299 cell lines are fibroblast.

For another series, the system named is HEL299 fibroblast. The series is described as follows: MTT assay, HEL299 fibroblast.
Text: as §1

The test system of another series is A3 cell lines. The series is described as follows: MTT assay, A3 cell lines (lung cancer stem cell). The settings on record: for inhibition effect on A3 cell line (in words): summary of MTT cell viabilities. The text has this: Please to FIG. 4B, various cell viabilities of the A3 cell lines can be obtained through the MTT assay and illustrated in FIG. 4B while the compounds No. 1˜30 are used to treat A3 cell lines, wherein A3 cell lines are lung cancer stem cell.

One may read the viability as a read-out of living cells in per cent, often relative to untreated cells.

As to `O=c1c2ccccc2sc2c(Cl)c(SCc3ccc(Br)cc3)ccc12` [No. 25, 3-(4-Bromobenzylthio)-4-chloro-9H-thioxanthen-9-one], the “cell viabilities of A control cell lines (MTT assay)” value with A control cell lines came to 40.8%. In the series on A control cell lines (summary of MTT cell viabilities), the “inhibition effect on A control cell line (in words)” value is on record as “inhibition effect”. Moreover, the viability in series [1] was determined as 79.3%. Moreover, the “cytotoxicity effect on the normal fibroblast (in words)” value in the series with HEL299 fibroblast is “without the cytotoxicity effect”. In addition, in the series on A3 cell lines, the “cell viabilities of A3 cell lines (MTT assay)” value was 61.5% and the “inhibition effect on A3 cell line (in words)” value is “inhibition effect”.

With `Cc1ccc(Sc2ccc3c(=O)c4ccccc4sc3c2Cl)c(C)c1` [No. 10, 4-Chloro-3-(2,4-dimethylphenylthio)-9H-thioxanthen-9-one], the “cell viabilities of A control cell lines (MTT assay)” value in the series on A control cell lines came out at 104 ± 11.0%. In addition, the viability in series [1] turned out to be 108%. In addition, the “cytotoxicity effect on the normal fibroblast (in words)” value in the series with HEL299 fibroblast is “without the cytotoxicity effect”. In addition, in the series with A3 cell lines, the “cell viabilities of A3 cell lines (MTT assay)” value is 59.9% and the “inhibition effect on A3 cell line (in words)” value is on record as “inhibition effect”.
